Laboratory results published in US7649013B2, “Methods of protecting against radiation injury” (priority 2003, dated 2010).
Entries after “also recorded” stand apart in the source; their conditions may differ.

Key:
[1] = system: BRCA1 in human colon cancer cells (SW480); test: Relative expression of cell cycle checkpoint genes, Human Cell-cycle Checkpoint GEArray Kit; type: cell-based; conditions: SW480, 2 μM, 4 hours, vs carrier alone
Description: Exponentially growing human colon cancer cells (SW480) are treated with β-lapachone at 2 μM, or carrier alone control, for 4 hours. Total RNA is prepared by Trizol reagents. Relative expression levels of multiple genes involved in cell cycle checkpoint are determined with the Human Cell-cycle Checkpoint GEArray Kit (SuperArray Inc. Bethesda, Md.) (FIG. 3). The up-regulation of the E2F1 target BRCA1 in β-lapachone treated cancer cells is another indication of E2F1 activation. BRCA1 is a tumor suppressor involved in many roles within the cell including DNA repair.

[2] = system: C57BL/6J inbred strain female mice; test: Histologic spleen cellularity after whole body irradiation, hematoxylin-eosin sections (Example 7c); type: in vivo; conditions: 40 mg/kg i.p. 0.5 hour before 5 Gy (nonlethal); five days after irradiation
Description: Spleen cellularity is qualitatively assessed following whole body gamma irradiation in mice, with and without pretreatment with β-lapachone, as follows. β-lapachone is prepared at 10 mg/ml in 40% hydroxypropyl-beta-cyclodextrin (HPBCD). C57BL/6J inbred strain female mice (4-5 weeks old) are organized into three groups of six mice each: Group I mice receive no radiation, no β-lapachone, and no carrier; Group II mice receive radiation and are injected with carrier (40% HPBCD 4 ml/kg body weight); and Group III mice are injected intraperitoneally at 0.5 hour before irradiation with β-lapachone (40 mg/kg body weight). Whole body irradiation of animals with 8 Gy (lethal radiation) or 5 Gy (sublethal radiation) of γ-rays is carried out in air at room temperature in a gamma chamber (Gammacell 40 Exactor), with a dose-rate of 1.05 Gy/min. This radiation dose is within the range of equivalent human exposures predicted in many scenarios of radiologic or nuclear terrorist attack. Following irradiation, animals are maintained in a climate-controlled animal facility. Three mice in each of Groups I, II, and III are sacrificed on day five following irradiation, and an analysis of splenic cellularity is performed for each. […] Splenic cellularity is qualitatively assessed in sections stained with hematoxylin-eosin following standard procedures.

[3] = system: C57BL/6J inbred strain female mice; test: Radiation-induced leukopenia after whole body irradiation, leukocyte count (Example 8); type: in vivo; conditions: for L % (percentage of lymphocytes) / M % (percentage of monocytes) / N % (percentage of neutrophils) / WBC: 40 mg/kg i.p. 0.5 hour before 8 Gy
Description: The effect of β-lapachone pre-treatment on radiation-induced leukopenia (e.g., radiation-induced neutropenia, monocytopenia, or lymphocytopenia, or subcombinations thereof) following whole body gamma irradiation in mice, with and without pretreatment with β-lapachone, is assessed as follows. β-lapachone is prepared at 10 mg/ml in 40% hydroxypropyl-beta-cyclodextrin (HPBCD). C57BL/6J inbred strain female mice (4-5 weeks old) are organized into three groups of six mice each: Group I mice receive no radiation, no β-lapachone, and no carrier; Group II mice receive radiation and are injected with carrier (40% HPBCD 4 ml/kg body weight); and Group III mice are injected intraperitoneally at 0.5 hour before irradiation with β-lapachone (40 mg/kg body weight). Whole body irradiation of animals with 8 Gy (lethal radiation) or 5 Gy (sublethal radiation) of γ-rays is carried out in air at room temperature in a gamma chamber (Gammacell 40 Exactor), with a dose-rate of 1.05 Gy/min. This radiation dose is within the range of equivalent human exposures predicted in many scenarios of radiologic or nuclear terrorist attack. Following irradiation, animals are maintained in a climate-controlled animal facility. Three mice in each of Groups I, II, and III are sacrificed on day five following irradiation, and an analysis of radiation-induced leukopenia is performed for each. The remaining mice are sacrificed on day eight following irradiation, and an analysis of radiation-induced leukopenia is performed for each. Leukocytes are counted automatically using a hemacytometer counter in the animal facility at MIT.

[4] = system: E2F1 in human colon cancer cells (SW480); test: E2F1 level in whole cell extracts, SDS/PAGE and enhanced chemiluminescence, colon cancer cells; type: cell-based; conditions: SW480, 2 μM, 20 minute to 4 hour exposures
Description: Human colon cancer cells (SW480) and normal colon cells (NCM460) are treated with β-lapachone at a concentration of 2 μM and are harvested after 20 minute, 1 hour, 2 hour, or 4 hour exposures. Whole cell extracts are prepared and resolved by SDS/PAGE. An enhanced chemiluminescence assay system (Amersham Pharmacia) is used to determine the E2F1 level. Monoclonal antibody against […] is obtained from Santa Cruz Biotechnology (Santa Cruz, Calif.). […] Elevation of E2F1 following exposure to β-lapachone persists through cell death in cancer cells.

[5] = system: C57BL/6J inbred strain female mice; test: Thymic cellularity after whole body irradiation, hematoxylin-eosin sections (Example 7a); type: in vivo; conditions: 40 mg/kg i.p. 0.5 hour before 8 Gy; day five
Description: β-lapachone is prepared at 10 mg/ml in 40% hydroxypropyl-beta-cyclodextrin (HPBCD). C57BL/6J inbred strain female mice (4-5 weeks old) are organized into three groups of six mice each: Group I mice receive no radiation, no β-lapachone, and no carrier; Group II mice receive radiation and are injected with carrier (40% HPBCD 4 ml/kg body weight); and Group III mice are injected intraperitoneally at 0.5 hour before irradiation with β-lapachone (40 mg/kg body weight). Whole body irradiation of animals with 8 Gy of γ-rays is carried out in air at room temperature in a gamma chamber (Gammacell 40 Exactor), with a dose-rate of 1.05 Gy/min. This radiation dose is within the range of equivalent human exposures predicted in many scenarios of radiologic or nuclear terrorist attack. Following irradiation, animals are maintained in a climate-controlled animal facility. Three mice in each of Groups I, II, and III are sacrificed on day five following irradiation, and an analysis of thymic cellularity is performed for each. The remaining mice are sacrificed on day eight following irradiation, and an analysis of thymic cellularity is performed for each. Thymic cellularity is qualitatively assessed in sections stained with hematoxylin-eosin following standard procedures.

Q: With `CC1(C)CCC2=C(O1)c1ccccc1C(=O)C2=O` [β-lapachone, 3,4-dihydro-2,2-dimethyl-2H-naphtho[1,2-b]pyran-5,6-dione] as the compound, how does the “BRCA1 relative expression level” value [1] read?
A: induces increased expression; also recorded: up-regulation

Q: And the “Spleen structure and cellularity judged histologically (FIG. 10)” value [2]?
A: protective effect on spleen structure and cellularity

Q: And the “L % (percentage of lymphocytes)” value ([3]; Day 5)?
A: 66.24%

Q: What about the “M % (percentage of monocytes)” value ([3]; Day 5) of the same compound?
A: 8.13%

Q: And the “N % (percentage of neutrophils)” value ([3]; Day 5)?
A: 19.1%

Q: What about the WBC ([3]; Day 5) of the same compound?
A: 0.53 ± 0.4 1000 cells/ml

Q: And the “L % (percentage of lymphocytes)” value ([3]; Day 8)?
A: 52.69%

Q: And the “M % (percentage of monocytes)” value ([3]; Day 8)?
A: 13.23%

Q: What about the “N % (percentage of neutrophils)” value ([3]; Day 8) of the same compound?
A: 20.29%

Q: What about the WBC ([3]; Day 8) of the same compound?
A: 0.37 ± 0.24 1000 cells/ml

Q: And the “Protection against radiation-induced neutropenia, monocytopenia, and lymphocytopenia” value ([3]; pretreatment, 8 Gy, day 5 and day 8, P<0.05)?
A: partially protects

Q: And the E2F1 level [4]?
A: Elevation of E2F1 is seen in tumor cells; also recorded: induces increased expression of E2F1

Q: What about the “Thymic cellularity in thymic sections (FIG. 8)” value [5] of the same compound?
A: preserves thymic cellularity
